Results: patent publication EP4707280A1, “1,4-CINEOLE DERIVATIVE AND INTERMEDIATE THEREOF, HERBICIDE CONTAINING SAID DERIVATIVE AS ACTIVE INGREDIENT, METHOD FOR USING HERBICIDE, AND METHOD FOR PREPARING AGROCHEMICAL COMPOSITION” (HOKKO CHEMICAL INDUSTRY CO., LTD., priority 2023, dated 2024)

Tests used:
Format in all cases: in vivo
[1] = test system: Echinochloa crus-galli var. formosensis; experiment: Test Example 5: herbicidal effect test by soil application in paddy rice (low dose); settings: Echinochloa crus-galli, soil, 336 h; 7.5 g per 10 ares; applied immediately after sowing, flooded pots; 14 days after application; read-out: weed inhibition rate
Summary of the method: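 Flooded-paddy soil application at low dose (7.5 g a.i. per 10 ares), given by dropper as diluted emulsifiable concentrate directly after sowing weeds 0–1 cm deep. Effect evaluated after 14 days in duplicate.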

[2] = test system: Echinochloa crus-galli; experiment: Test Example 3: herbicidal effect test by soil application in upland field; settings: Echinochloa crus-galli, 120 g per 10 ares, sprayed one day after sowing, 14 days after application, read-out: weed inhibition rate
Summary of the method: (§1)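 Weed inhibition (%) was assessed 14 days after treatment, in duplicate per concentration group. Seeds had been mixed into the upper 1 cm of upland alluvial loam, and the soil surface was sprayed one day later with the diluted emulsifiable concentrate at 120 g active ingredient per 10 ares.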

[3] = test system: Digitaria ciliaris; experiment: as above; settings: Digitaria ciliaris, 120 g per 10 ares, sprayed one day after sowing, 14 days after application, read-out: weed inhibition rate
Summary of the method: as §1

[4] = test system: Echinochloa crus-galli var. formosensis; experiment: Test Example 1: herbicidal effect test by soil application in paddy rice; settings: Echinochloa crus-galli, soil, 336 h; 120 g active ingredient per 10 ares; applied immediately after sowing, flooded pots; 14 days after application; read-out: weed inhibition rate
Summary of the method: (§2)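 Pre-emergence paddy soil application, 120 g a.i./10 a, emulsifiable concentrate diluted in water, applied by dropper right after sowing. Seeds (30/species) sown 0–1 cm in puddled, fertilized soil; flooded ~3 cm; glass greenhouse.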

[5] = test system: Scirpus juncoides; experiment: as above; settings: Schoenoplectiella juncoides, soil, 336 h; 120 g active ingredient per 10 ares; applied immediately after sowing, flooded pots; 14 days after application; read-out: weed inhibition rate
Summary of the method: as §2

[6] = test system: Echinochloa crus-galli var. formosensis; experiment: Test Example 6: herbicidal effect test by application during growth period of paddy rice (low dose); settings: Echinochloa crus-galli; 7.5 g per 10 ares; applied seven days after sowing, flooded pots; 14 days after application; read-out: weed inhibition rate
Summary of the method: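 Emulsifiable concentrate, water-diluted, dropped onto flooded paddy pots 7 days post-sowing at 7.5 g active ingredient/10 a. Greenhouse-grown weeds; percent inhibition scored at day 14 after treatment.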

[7] = test system: Echinochloa crus-galli; experiment: Test Example 7: herbicidal effect test by soil application in upland field (low dose); settings: Echinochloa crus-galli, 7.5 g per 10 ares, sprayed one day after sowing, 14 days after application, read-out: weed inhibition rate
Summary of the method: (§3)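 Upland soil (alluvial loam) pots, seeds mixed into top 1 cm layer → EC formulation diluted with water, sprayed onto soil 1 d post-sowing, 100 L/10 a → 7.5 g a.i./10 a → inhibition (%) scored at 14 d, n=2.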

[8] = test system: Digitaria ciliaris; experiment: as above; settings: Digitaria ciliaris, 7.5 g per 10 ares, sprayed one day after sowing, 14 days after application, read-out: weed inhibition rate
Summary of the method: as §3

[9] = test system: Digitaria ciliaris; experiment: Test Example 4: herbicidal effect test by stem and leaf treatment in upland field; settings: Digitaria ciliaris; 120 g per 10 ares; sprayed seven days after sowing, upland soil; 14 days after application; read-out: weed inhibition rate
[10] = test system: Echinochloa crus-galli; experiment: as above; settings: Echinochloa crus-galli; 120 g per 10 ares; sprayed seven days after sowing, upland soil; 14 days after application; read-out: weed inhibition rate
[11] = test system: Echinochloa crus-galli var. formosensis; experiment: Test Example 2: herbicidal effect test by application during growth period of paddy rice; settings: Echinochloa crus-galli; 120 g per 10 ares; applied seven days after sowing, flooded pots; 14 days after application; read-out: weed inhibition rate
Summary of the method: (§4)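 Steps: puddle fertilized paddy soil; sow 30 seeds of each weed at 0–1 cm; flood to roughly 3 cm and keep in a glasshouse; at day 7 drop in diluted emulsifiable concentrate (120 g a.i. per 10 ares); score inhibition (%) 14 days later, two replicates.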

[12] = test system: Scirpus juncoides; experiment: as above; settings: Schoenoplectiella juncoides; 120 g per 10 ares; applied seven days after sowing, flooded pots; 14 days after application; read-out: weed inhibition rate
Summary of the method: as §4

[13] = test system: Echinochloa crus-galli; experiment: Test Example 8: herbicidal effect test by stem and leaf treatment in upland field (low dose); settings: Echinochloa crus-galli; 7.5 g per 10 ares; sprayed seven days after sowing, upland soil; 14 days after application; read-out: weed inhibition rate
[14] = test system: Digitaria ciliaris; experiment: as above; settings: Digitaria ciliaris; 7.5 g per 10 ares; sprayed seven days after sowing, upland soil; 14 days after application; read-out: weed inhibition rate

CC#CCOC1C[C@]2(C(C)C)O[C@@]1(C)C[C@@H]2OC (mixture of isomers) [1-801, (1R,2S,4S,SR)-5-but-2-ynoxy-1-isopropyl-2-methoxy-4-methyl-7-oxabicyclo[2.2.1]heptane]
≥ 80%: inhibition at 75 g/ha [1] | inhibition at 1200 g/ha [2] | inhibition at 1200 g/ha [3] | pest or weed control at 1200 g/ha [4] | pest or weed control at 1200 g/ha [5] | inhibition at 75 g/ha [6] | inhibition at 75 g/ha [7] | inhibition at 75 g/ha [8] | inhibition at 1200 g/ha [9] | inhibition at 1200 g/ha [10] | inhibition at 1200 g/ha [11] | inhibition at 1200 g/ha [12] | inhibition at 75 g/ha [13] | inhibition at 75 g/ha [14]

Cc1ccccc1CO[C@@H]1C[C@]2(C(C)C)O[C@@]1(C)C[C@@H]2Cl [1-9, (1R,2S,4S,5R)-2-chloro-1-isopropyl-4-methyl-5-(o-tolylmethoxy)-7-oxabicyclo[2.2.1]heptane]
≥ 80%: inhibition at 75 g/ha [1] | inhibition at 1200 g/ha [2] | inhibition at 1200 g/ha [3] | pest or weed control at 1200 g/ha [4] | pest or weed control at 1200 g/ha [5] | inhibition at 75 g/ha [6] | inhibition at 75 g/ha [7] | inhibition at 75 g/ha [8] | inhibition at 1200 g/ha [9] | inhibition at 1200 g/ha [10] | inhibition at 1200 g/ha [11] | inhibition at 1200 g/ha [12] | inhibition at 75 g/ha [13] | inhibition at 75 g/ha [14]

COc1ccccc1CO[C@@H]1C[C@]2(C(C)C)O[C@@]1(C)C[C@@H]2Cl [1-11, (1R,2S,4S,5R)-2-chloro-1-isopropyl-5-[(2-methoxyphenyl)methoxy]-4-methyl-7-oxabicyclo[2.2.1]heptane]
≥ 80%: inhibition at 75 g/ha [1] | inhibition at 1200 g/ha [2] | inhibition at 1200 g/ha [3] | pest or weed control at 1200 g/ha [4] | pest or weed control at 1200 g/ha [5] | inhibition at 75 g/ha [6] | inhibition at 75 g/ha [7] | inhibition at 75 g/ha [8] | inhibition at 1200 g/ha [9] | inhibition at 1200 g/ha [10] | inhibition at 1200 g/ha [11] | inhibition at 1200 g/ha [12] | inhibition at 75 g/ha [13] | inhibition at 75 g/ha [14]

CC(C)[C@]12C[C@@H](OCc3ccsc3)[C@](C)(C[C@@H]1I)O2 [1-789, (1R,2S,4S,5R)-2-iodo-1-isopropyl-4-methyl-5-(3-thienylmethoxy)-7-oxabicyclo[2.2.1]heptane]
≥ 80%: inhibition at 75 g/ha [1] | inhibition at 1200 g/ha [2] | inhibition at 1200 g/ha [3] | pest or weed control at 1200 g/ha [4] | pest or weed control at 1200 g/ha [5] | inhibition at 75 g/ha [6] | inhibition at 75 g/ha [7] | inhibition at 75 g/ha [8] | inhibition at 1200 g/ha [9] | inhibition at 1200 g/ha [10] | inhibition at 1200 g/ha [11] | inhibition at 1200 g/ha [12] | inhibition at 75 g/ha [13] | inhibition at 75 g/ha [14]

Cc1cccc(C)c1COC1CC2(C(C)C)OC1(C)CC2I (stereo not shown) [1-1445, 5-[(2,6-dimethylphenyl)methoxy]-2-iodo-1-isopropyl-4-methyl-7-oxabicyclo[2.2.1]heptane]
≥ 80%: inhibition at 75 g/ha [1] | inhibition at 1200 g/ha [2] | inhibition at 1200 g/ha [3] | pest or weed control at 1200 g/ha [4] | pest or weed control at 1200 g/ha [5] | inhibition at 75 g/ha [6] | inhibition at 75 g/ha [7] | inhibition at 75 g/ha [8] | inhibition at 1200 g/ha [9] | inhibition at 1200 g/ha [10] | inhibition at 1200 g/ha [11] | inhibition at 1200 g/ha [12] | inhibition at 75 g/ha [13] | inhibition at 75 g/ha [14]

CC(C)C12CC(OCc3ccccc3)C(C)(CC1Br)O2 (stereo not shown) [1-1342, 5-bromo-1-methyl-2-phenylmethoxy-4-isopropyl-7-oxabicyclo[2.2.1]heptane]
≥ 80%: inhibition at 75 g/ha [1] | inhibition at 1200 g/ha [2] | inhibition at 1200 g/ha [3] | pest or weed control at 1200 g/ha [4] | pest or weed control at 1200 g/ha [5] | inhibition at 75 g/ha [6] | inhibition at 75 g/ha [7] | inhibition at 75 g/ha [8] | inhibition at 1200 g/ha [9] | inhibition at 1200 g/ha [10] | inhibition at 1200 g/ha [11] | inhibition at 1200 g/ha [12] | inhibition at 75 g/ha [13] | inhibition at 75 g/ha [14]

Cc1cccc(C)c1CO[C@@H]1C[C@]2(C(C)C)O[C@@]1(C)C[C@@H]2Cl [1-10, (1R,2S,4S,5R)-2-chloro-5-[(2,6-dimethylphenyl)methoxy]-1-isopropyl-4-methyl-7-oxabicyclo[2.2.1]heptane]
≥ 80%: inhibition at 75 g/ha [1] | inhibition at 1200 g/ha [2] | inhibition at 1200 g/ha [3] | pest or weed control at 1200 g/ha [4] | pest or weed control at 1200 g/ha [5] | inhibition at 75 g/ha [6] | inhibition at 75 g/ha [7] | inhibition at 75 g/ha [8] | inhibition at 1200 g/ha [9] | inhibition at 1200 g/ha [10] | inhibition at 1200 g/ha [11] | inhibition at 1200 g/ha [12] | inhibition at 75 g/ha [13] | inhibition at 75 g/ha [14]

CC(C)[C@]12C[C@@H](OCc3ccccc3Cl)[C@](C)(C[C@@H]1I)O2 [1-756, (1R,2S,4S,5R)-5-[(2-chlorophenyl)methoxy]-2-iodo-1-isopropyl-4-methyl-7-oxabicyclo[2.2.1]heptane]
≥ 80%: inhibition at 75 g/ha [1] | inhibition at 1200 g/ha [2] | inhibition at 1200 g/ha [3] | pest or weed control at 1200 g/ha [4] | pest or weed control at 1200 g/ha [5] | inhibition at 75 g/ha [6] | inhibition at 75 g/ha [7] | inhibition at 75 g/ha [8] | inhibition at 1200 g/ha [9] | inhibition at 1200 g/ha [10] | inhibition at 1200 g/ha [11] | inhibition at 1200 g/ha [12] | inhibition at 75 g/ha [13] | inhibition at 75 g/ha [14]
